Tests used:
[1] = system: Chenopodium album; assay: Herbicidal activity in post-emergence; format: in vivo; conditions: dosage of 15 g/ha, fifteen days after the treatment, damage vs non-treated plants
Description: (§1) Determination of the Herbicidal Activity and Phytotoxicity in Post-Emergence The herbicidal activity of the compounds of the invention in post-emergence was evaluated according to the following operative procedures. The vegetable species of interest (weeds or crops) were sown in pots with an upper diameter of 10 cm, a height of 10 cm and containing sandy soil. 10 pots were used for each vegetable species. Water was added to each pot in such a quantity as to germinate the seeds. The pots were divided into two groups, each containing 5 pots for each weed or crop. Fifteen days after sowing (ten, in the case of wheat), when the weeds and crops, according to the species, were 10-15 cm high, the first set of pots was treated with a hydro-acetonic dispersion containing acetone at 10% in volume, the product under evaluation at the desired concentration and Tween 20 at 0.5%. The second set was treated with a hydro-acetonic solution only, containing acetone at 10% in volume and Tween 20 at 0.5%, and was used as comparison (blank). All pots were kept under observation in a conditioned environment under the following conditions: temperature: 24° C.; relative humidity: 60%; photo-period: 16 ore; light intensity: 10000 lux. The pots were uniformly watered every other day so as to ensure a humidity degree sufficient for a good development of the plants.

[2] = system: Portulaca oleracea; assay: Herbicidal activity in post-emergence; format: in vivo; conditions: dosage of 15 g/ha, fifteen days after the treatment, damage vs non-treated plants
Description: as §1

[3] = system: Amaranthus retroflexus; assay: Herbicidal activity in post-emergence; format: in vivo; conditions: dosage of 15 g/ha, fifteen days after the treatment, damage vs non-treated plants
Description: as §1

[4] = system: Abutilon theofrasti; assay: Herbicidal activity in post-emergence; format: in vivo; conditions: dosage of 15 g/ha, fifteen days after the treatment, damage vs non-treated plants
Description: as §1

[5] = system: Ipomea purpurea; assay: Herbicidal activity in post-emergence; format: in vivo; conditions: dosage of 15 g/ha, fifteen days after the treatment, damage vs non-treated plants
Description: as §1

[6] = system: Solanum nigrum; assay: Herbicidal activity in post-emergence; format: in vivo; conditions: dosage of 15 g/ha, fifteen days after the treatment, damage vs non-treated plants
Description: as §1

[7] = system: Sida spinosa; assay: Herbicidal activity in post-emergence; format: in vivo; conditions: dosage of 15 g/ha, fifteen days after the treatment, damage vs non-treated plants
Description: as §1

[8] = system: Chenopodium album; assay: Herbicidal activity in pre-emergence; format: in vivo; conditions: dosage of 15 g/ha, fifteen days after the treatment, damage vs non-treated plants
Description: (§2) Determination of the Herbicidal Activity and Phytotoxicity in Pre-Emergence The herbicidal activity of the compounds of the invention in pre-emergence was evaluated according to the following operative procedures. The vegetable species of interest (weeds or crops) were sown in pots with an upper diameter of 10 cm, a height of 10 cm and containing sandy soil. 10 pots were used for each vegetable species. Water was added to each pot in such a quantity as to germinate the seeds. The pots were divided into two groups, each containing 5 pots for each weed or crop. After one day from the sowing, the first set of pots was treated with a hydro-acetonic dispersion containing acetone at 10% in volume, the product under evaluation at the desired concentration and Tween 20 at 0.5%. The second set was treated with a hydro-acetonic solution only, containing acetone at 10% in volume and Tween 20 at 0.5%, and was used as comparison (blank). All pots were kept under observation in a conditioned environment under the following conditions: temperature: 24° C.; relative humidity: 60%; photoperiod: 16 ore; light intensity: 10000 lux. The pots were uniformly watered in order to ensure a sufficient humidity degree for a good development of the plants.

[9] = system: Galium aparine; assay: Herbicidal activity in pre-emergence; format: in vivo; conditions: dosage of 15 g/ha, fifteen days after the treatment, damage vs non-treated plants
Description: as §2

[10] = system: Portulaca oleracea; assay: Herbicidal activity in pre-emergence; format: in vivo; conditions: dosage of 15 g/ha, fifteen days after the treatment, damage vs non-treated plants
Description: as §2

[11] = system: Amaranthus retroflexus; assay: Herbicidal activity in pre-emergence; format: in vivo; conditions: dosage of 15 g/ha, fifteen days after the treatment, damage vs non-treated plants
Description: as §2

[12] = system: Abutilon theofrasti; assay: Herbicidal activity in pre-emergence; format: in vivo; conditions: dosage of 15 g/ha, fifteen days after the treatment, damage vs non-treated plants
Description: as §2

[13] = system: Ipomea purpurea; assay: Herbicidal activity in pre-emergence; format: in vivo; conditions: dosage of 15 g/ha, fifteen days after the treatment, damage vs non-treated plants
Description: as §2

[14] = system: Solanum nigrum; assay: Herbicidal activity in pre-emergence; format: in vivo; conditions: dosage of 15 g/ha, fifteen days after the treatment, damage vs non-treated plants
Description: as §2

[15] = system: Sida spinosa; assay: Herbicidal activity in pre-emergence; format: in vivo; conditions: dosage of 15 g/ha, fifteen days after the treatment, damage vs non-treated plants
Description: as §2

SMILES: Cn1c(C(F)(F)F)cc(=O)n(-c2cc(OCc3nnc(C(C)(C)C)o3)c(Cl)cc2F)c1=O [Compound No 6, 3-{5-[(5-tert-butyl-1,3,4-oxadiazol-2-yl)methoxy]-4-chloro-2-fluorophenyl}-1-methyl-6-(trifluoromethyl)-2,4(1H,3H)-pyrimidinedione]
- Herbicidal activity in post-emergence, CA [1]: 4 (4=71-90% damage)
- Herbicidal activity in post-emergence, PO [2]: 4 (4=71-90% damage)
- Herbicidal activity in post-emergence, AR [3]: 3 (3=51-70% damage)
- Herbicidal activity in post-emergence, AT [4]: 5 (5=91% damage—death of the plant)
- Herbicidal activity in post-emergence, IP [5]: 5 (5=91% damage—death of the plant)
- Herbicidal activity in post-emergence, SN [6]: 5 (5=91% damage—death of the plant)
- Herbicidal activity in post-emergence, SS [7]: 4 (4=71-90% damage)
- Herbicidal activity in pre-emergence, CA [8]: 5 (5=91% damage—death of the plant)
- Herbicidal activity in pre-emergence, GA [9]: 5 (5=91% damage—death of the plant)
- Herbicidal activity in pre-emergence, PO [10]: 5 (5=91% damage—death of the plant)
- Herbicidal activity in pre-emergence, AR [11]: 4 (4=71-90% damage)
- Herbicidal activity in pre-emergence, AT [12]: 5 (5=91% damage—death of the plant)
- Herbicidal activity in pre-emergence, IP [13]: 4 (4=71-90% damage)
- Herbicidal activity in pre-emergence, SN [14]: 5 (5=91% damage—death of the plant)
- Herbicidal activity in pre-emergence, SS [15]: 5 (5=91% damage—death of the plant)

SMILES: C=CCn1nnnc1-c1cc(-n2c(=O)cc(C(F)(F)F)n(C)c2=O)ccc1Cl [Compound No 106, 3-[3-(1-allyl-1H-tetrazol-5-yl)-4-chlorophenyl]-1-methyl-6-(trifluoromethyl)-2,4(1H,3H)-pyrimidinedione]
- melting point: 160 °C

SMILES: CCOCn1nnc(-c2cc(-n3c(=O)cc(C(F)(F)F)n(C)c3=O)ccc2Cl)n1 [Compound No 103, 3-{4-chloro-3-[2-(ethoxymethyl)-2H-tetrazol-5-yl]phenyl}-1-methyl-6-(trifluoromethyl)-2,4(1H,3H)-pyrimidinedione]
- melting point: 140 °C

SMILES: CCOC(=O)/C=C(\COc1cc(-n2c(=O)cc(C(F)(F)F)n(C)c2=O)c(Cl)cc1Cl)OC [Compound No 99, ethyl (2E)-4-{2,4-dichloro-5-[1,2,3,6-tetrahydro-3-methyl-2,6-dioxo-4-(trifluoromethyl)pyrimidin-1-yl]phenoxy}-3-methoxybut-2-enoate]
- melting point: 128 °C

SMILES: COC(=O)Cn1nnc(COc2cc(-n3c(=O)cc(C(F)(F)F)n(C)c3=O)c(F)cc2Cl)n1 [Compound No 11, methyl [5-({2-chloro-4-fluoro-5-[1,2,3,6-tetrahydro-3-methyl-2,6-dioxo-4-(trifluoromethyl)pyrimidin-1-yl]phenoxy}methyl)-2H-tetrazol-2-yl]acetate]
- melting point: 65 °C

SMILES: Cc1cc(COc2cc(-n3c(=O)cc(C(F)(F)F)n(C)c3=O)c(F)cc2Cl)on1 [Compound No 107, 3-{4-chloro-2-fluoro-5-[(3-methylisoxazol-5-yl)methoxy]phenyl}-1-methyl-6-(trifluoromethyl)-2,4(1H,3H)-pyrimidinedione]
- melting point: 154 °C

SMILES: Cc1cc(COc2cc(-n3c(=O)cc(C(F)(F)F)n(C)c3=O)c(Cl)cc2Cl)on1 [Compound No 108, 3-{2,4-dichloro-5-[(3-methylisoxazol-5-yl)methoxy]phenyl}-1-methyl-6-(trifluoromethyl)-2,4(1H,3H)-pyrimidinedione]
- melting point: 185 °C

SMILES: CN(C)C(=O)Cn1nnc(-c2cc(-n3c(=O)cc(C(F)(F)F)n(C)c3=O)ccc2Cl)n1 [Compound No 125, 2-(5-{2-chloro-5-[1,2,3,6-tetrahydro-3-methyl-2,6-dioxo-4-(trifluoromethyl)pyrimidin-1-yl]phenyl}-2H-tetrazol-2-yl)-N,N-dimethylacetamide]
- melting point: 208 °C

SMILES: Cn1c(C(F)(F)F)cc(=O)n(-c2ccc(Cl)c(-c3nnn(CC(N)=O)n3)c2)c1=O [Compound No 126, 2-(5-{2-chloro-5-[1,2,3,6-tetrahydro-3-methyl-2,6-dioxo-4-(trifluoromethyl)pyrimidin-1-yl]phenyl}-2H-tetrazol-2-yl)acetamide]
- melting point: 200 °C

SMILES: CCn1nnc(-c2cc(-n3c(=O)cc(C(F)(F)F)n(C)c3=O)ccc2Cl)n1 [Compound No 15, 3-[4-chloro-3-(2-ethyl-2H-tetrazol-5-yl)phenyl]-1-methyl-6-(trifluoromethyl)-2,4(1H,3H)-pyrimidinedione]
- melting point: 136 °C

SMILES: COC(=O)Cn1nnnc1COc1cc(-n2c(=O)cc(C(F)(F)F)n(C)c2=O)c(F)cc1Cl [Compound No 10, methyl [5-({2-chloro-4-fluoro-5-[1,2,3,6-tetrahydro-3-methyl-2,6-dioxo-4-(trifluoromethyl)pyrimidin-1-yl]phenoxy}methyl)-1H-tetrazol-1-yl]acetate]
- melting point: 243 °C

SMILES: Cn1c(C(F)(F)F)cc(=O)n(-c2cc(OCc3ncon3)c(Cl)cc2F)c1=O [Compound No 117, 3-[4-chloro-2-fluoro-5-(1,2,4-oxadiazol-3-ylmethoxy)phenyl]-1-methyl-6-(trifluoromethyl)-2,4(1H,3H)-pyrimidinedione]
- melting point: 122 °C

SMILES: Cn1c(C(F)(F)F)cc(=O)n(-c2cc(-c3nc4ccccc4o3)c(Cl)cc2F)c1=O [Compound No 122, 3-[5-(1,3-benzoxazol-2-yl)-4-chloro-2-fluorophenyl]-1-methyl-6-(trifluoromethyl)-2,4(1H,3H)-pyrimidinedione]
- melting point: 178 °C

SMILES: Cn1nnnc1-c1cc(-n2c(=O)cc(C(F)(F)F)n(C)c2=O)ccc1Cl [Compound No 14, 3-[4-chloro-3-(1-methyl-1H-tetrazol-5-yl)phenyl]-1-methyl-6-(trifluoromethyl)-2,4(1H,3H)-pyrimidinedione]
- melting point: 185 °C

SMILES: COCn1nnnc1-c1cc(-n2c(=O)cc(C(F)(F)F)n(C)c2=O)ccc1Cl [Compound No 102, 3-{4-chloro-3-[1-(methoxymethyl)-1H-tetrazol-5-yl]phenyl}-1-methyl-6-(trifluoromethyl)-2,4(1H,3H)-pyrimidinedione]
- melting point: 182 °C

SMILES: CCOC(=O)/C=C(\COc1cc(-n2c(=O)cc(C(F)(F)F)n(C)c2=O)c(F)cc1Cl)OC [Compound No 100, ethyl (2E)-4-{2-chloro-4-fluoro-5-[1,2,3,6-tetrahydro-3-methyl-2,6-dioxo-4-(trifluoromethyl)pyrimidin-1-yl]phenoxy}-3-methoxybut-2-enoate]
- melting point: 78 °C

SMILES: Cn1c(C(F)(F)F)cc(=O)n(-c2cc(Oc3nnc(C(F)(F)F)s3)c(Cl)cc2Cl)c1=O [Compound No 84, 3-(2,4-dichloro-5-{[5-(trifluoromethyl)-1,3,4-thiadiazol-2-yl]oxy}phenyl)-1-methyl-6-(trifluoromethyl)-2,4(1H,3H)-pyrimidinedione]
- melting point: 90 °C

SMILES: CCOCn1nnnc1-c1cc(-n2c(=O)cc(C(F)(F)F)n(C)c2=O)ccc1Cl [Compound No 104, 3-{4-chloro-3-[1-(ethoxymethyl)-1H-tetrazol-5-yl]phenyl}-1-methyl-6-(trifluoromethyl)-2,4(1H,3H)-pyrimidinedione]
- melting point: 157 °C

SMILES: Cn1c(C(F)(F)F)cc(=O)n(-c2ccc(Cl)c(-c3nc4ccccc4o3)c2)c1=O [Compound No 114, 3-[3-(1,3-benzoxazol-2-yl)-4-chlorophenyl]-1-methyl-6-(trifluoromethyl)-2,4(1H,3H)-pyrimidinedione]
- melting point: 183 °C

— patent US7754880B2, “Uracils having a herbicidal activity” (Isagro Ricerca S.r.l., priority 2002, dated 2010)
